Literature values, collected in patent publication US20060074243A1, “Hydroxamic acid and amide compounds and their use as protease inhibitors” (Pharmacia Corporation, priority 2002, published 2006).

Test system: solid tumor cancers (colorectal, pancreatic, ovarian, and prostate)
Conditions: cited from earlier work

For CNC(=O)[C@@H](NC(=O)[C@H](CC(C)C)[C@H](O)C(=O)NO)C(C)(C)C [Marimastat], the “most common drug-related toxicity” value (clinical trials) is listed as “musculoskeletal pain and stiffness” and the “rise of cancer-specific antigens used as surrogate markers for biological activity” value (patients with advanced, rapidly progressive, treatment-refractory solid tumor cancers) is listed as “dose-related reduction”.
